What was measured:
APOER2 = molecular target: T1, APOER2 (Homo sapiens, UniProt Q14114); assay: ELISA cell-free binding of RELN variants to ApoEr2
T1 construct: purchased OnGene (so in the source)
T1 sequence (Q14114 33-963): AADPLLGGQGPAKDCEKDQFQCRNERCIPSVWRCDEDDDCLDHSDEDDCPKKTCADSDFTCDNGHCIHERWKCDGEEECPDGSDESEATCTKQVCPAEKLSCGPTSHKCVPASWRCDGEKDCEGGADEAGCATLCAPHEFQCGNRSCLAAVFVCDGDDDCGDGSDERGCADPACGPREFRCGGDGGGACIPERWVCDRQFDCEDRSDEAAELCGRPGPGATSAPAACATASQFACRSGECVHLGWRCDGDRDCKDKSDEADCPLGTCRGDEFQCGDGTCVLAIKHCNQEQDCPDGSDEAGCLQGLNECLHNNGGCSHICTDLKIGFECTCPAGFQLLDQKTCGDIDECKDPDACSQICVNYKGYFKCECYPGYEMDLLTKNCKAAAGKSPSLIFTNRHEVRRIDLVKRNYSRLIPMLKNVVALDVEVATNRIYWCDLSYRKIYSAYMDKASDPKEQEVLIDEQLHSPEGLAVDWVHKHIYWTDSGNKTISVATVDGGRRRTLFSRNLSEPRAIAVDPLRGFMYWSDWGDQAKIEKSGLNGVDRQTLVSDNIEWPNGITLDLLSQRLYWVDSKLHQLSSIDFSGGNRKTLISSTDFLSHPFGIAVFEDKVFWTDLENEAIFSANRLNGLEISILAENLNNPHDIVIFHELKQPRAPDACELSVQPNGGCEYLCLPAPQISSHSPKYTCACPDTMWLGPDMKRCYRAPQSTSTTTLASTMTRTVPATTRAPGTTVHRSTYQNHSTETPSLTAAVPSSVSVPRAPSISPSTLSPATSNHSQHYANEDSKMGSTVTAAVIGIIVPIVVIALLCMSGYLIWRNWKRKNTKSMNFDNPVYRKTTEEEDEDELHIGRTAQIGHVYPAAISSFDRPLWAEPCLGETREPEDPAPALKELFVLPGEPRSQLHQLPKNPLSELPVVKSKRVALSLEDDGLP
Procedure: Enzyme-linked immunosorbent assay (ELISA) was used to quantify changes in binding of RELN variants (media-derived full-length or CTR-RELN) to either VLDLr or ApoEr2 following an optimized version of a previously published protocol (6). Briefly, ELISA strips (DY008, R&D Systems) were coated with one ng/μL (100 μL/well) of VLDLr (8444-VL, R&D) or ApoEr2 (TP320903, OnGene) receptors diluted in 25 mM Tris HCl, 140 mM NaCl, […], two mM CaCl2), pH 7.4 (TBS-C buffer). After 18 h at four ° C. incubation, plates were blocked one h with three % BSA (22070008-6, Bioworld), 0.05% Tween-20 (Sigma Aldrich) TBS-C buffer. We assessed binding via incubation with 100 μL/well of serial dilutions of recombinant RELN protein (Ser1221-Gln2666, 8546-MR-050, R&D) or RELN variants in TBS-C buffer for one hour at room temperature. For detection, we used goat anti-mouse RELN primary antibody (LS-C793521-100, LS-Bio, 1:2,000, 100 μL/well) as primary antibody for one h at R.T. and (1:10,000; 100 μL/well, donkey anti-goat IgG H&L, HRP, ab6885, Abcam) as secondary antibody for 30 min. at R.T. Between each of the previous steps, plates were washed four times with TBS-C buffer (200 μL/well). Plates were washed three times prior to initiating the colorimetric reaction (DY008, R&D Systems). Stop solution (50 μL/well, DY008, R&D Systems) was added upon five min. incubation and the absorbance of the samples was measured at 450 nm using the Synergy 2 microplate reader (BioTek Instruments). Processing and analysis of the data was done using Gen5 1.11 software and GraphPad Prism, respectively.

[1] = Bio-layer interferometry (BLI) of Fc-fusion CTR-RELN on heparin coated biosensor; format: binding; conditions: Fc-fusion (short, furin-cleaved) CTR
Procedure: We used Fc-fusion Reelin CTR peptides since peptides alone would be smaller than the limit of detection in this experimental design. To assess heparin—Fc-Reelin interaction, the octet system (bio-layer interferometry) was used to assess heparin-protein kinetics. 50 μg/mL biotinylated heparin was immobilized on the biosensor tip surface for 300 sec on preconditioned biosensors. This was followed by quenching with biocytin at 50 μg/ml, baseline buffer diluent for 120 sec, 200 nM of analyte (Fc-fusion proteins) for 120 sec, and disassociation in assay buffer for 120 sec.
The experimental data were fit with the 1:1 binding model and analyzed with global fitting using Octet Data Analysis software to calculate KD.

[2] = Surface plasmon resonance (SPR) binding of CTR-RELN peptides to heparin-coated chip
Procedure: Surface plasmon resonance assay (SPR) was used for performing binding kinetics using a Biacore 3000 Instrument (GE Healthcare) at 25° C. following previously published protocols (7 24) as fee-for-service by Precision Antibody (Maryland, USA). Biotin-labeled heparin (B9806, Sigma Aldrich) was covalently linked to streptavidin-coated chip and unoccupied sites were blocked with biocytin. Antigen was flowed over the chip using a range of single analyte concentrations prepared in DPBS buffer and using a flow rate of 30 μL/min. Binding of antigen to the ligand was monitored in real time to obtain on (ka) and off (kd) rates. The equilibrium constant (KD) was calculated from the observed ka and kd. Accuracy of the SPR analysis was determined via Chi square (χ2) analysis as described in the statistical analysis section. We included in the analyses the WT and H3447R peptides and peptides with the hypothetical H3447D change ([…])(SEQ ID NO:57) and the H3447K change ([…])(SEQ ID NO:58), also produced and purified by Innovagen (Sweden).
Surface plasmon resonance assay (SPR) was used for performing binding kinetics using a Biacore 3000 Instrument (GE Healthcare) at 25° C. following previously published protocols 34 24 fee-for-service by Precision Antibody (Maryland, USA). Heparin was covalently linked to streptavidin coated chip at 13 response units (RU) concentration and unoccupied sites were blocked with biocytin. Antigen was flowed over the chip using a range of single analyte concentrations prepared in DPBS buffer and using a flow rate of 30 μL/min. Binding of antigen to the ligand was monitored in real time to obtain on (ka) and off (kd) rates. The equilibrium constant (KD) was calculated from the observed ka and kd. Accuracy of the SPR analysis was determined via Chi square (2) analysis as described in the statistical analysis section.

binding to APOER2 (APOER2): unable to bind directly | heparin affinity/interaction relative to WT, in words ([2]; SPR kinetic constants): about twice | interaction/affinity with heparin relative to WT ([2]; SPR, kinetic data, vs RELN WT peptide): ~2 fold
Sequence: RKQNYMMNFSRQHGLRRFYNRRRRSLRRYP [CTR-RELN H3447R]
interaction/affinity with heparin relative to WT ([1]; listed as H3447R): ~2 fold | interaction/affinity with heparin relative to WT ([1]; listed as RELN H3447R): about 2 fold
